Laboratory results from patent US9403830B2, “Inhibitors of leukotriene production” (Boehringer Ingelheim International GmbH, priority 2012, dated 2016).

Assays:
human LTA4 hydrolase = target: T1, human LTA4 hydrolase (Homo sapiens, UniProt P09960); assay: LTA4H Enzyme assay (peptidase, Arg-AMC cleavage); assay type: biochemical; details: LTA4H enzyme 1 nM, Arg-AMC substrate 50 μM, room temperature 1 h, fluorescence 380/460 nm
T1 sequence (P09960 1-611): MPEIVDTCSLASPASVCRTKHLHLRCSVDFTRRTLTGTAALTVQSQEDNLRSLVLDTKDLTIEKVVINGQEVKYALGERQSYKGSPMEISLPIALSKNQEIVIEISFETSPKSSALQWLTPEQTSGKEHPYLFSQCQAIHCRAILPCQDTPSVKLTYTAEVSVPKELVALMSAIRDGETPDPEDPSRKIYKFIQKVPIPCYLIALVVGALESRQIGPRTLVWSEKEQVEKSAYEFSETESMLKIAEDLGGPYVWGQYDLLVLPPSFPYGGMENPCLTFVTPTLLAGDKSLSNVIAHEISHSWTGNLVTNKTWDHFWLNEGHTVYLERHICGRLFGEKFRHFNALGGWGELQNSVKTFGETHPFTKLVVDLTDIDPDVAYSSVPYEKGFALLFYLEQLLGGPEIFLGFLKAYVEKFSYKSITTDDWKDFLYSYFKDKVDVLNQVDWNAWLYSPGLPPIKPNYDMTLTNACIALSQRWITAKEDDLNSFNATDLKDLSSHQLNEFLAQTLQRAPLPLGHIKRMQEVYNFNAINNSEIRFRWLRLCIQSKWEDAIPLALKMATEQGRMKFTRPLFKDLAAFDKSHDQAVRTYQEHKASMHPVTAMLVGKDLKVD
Experimental: The compounds of the invention are assessed for the ability to interact with human LTA4 hydrolase in an enzymatic assay that measures the ability of the enzyme to cleave the peptide bond of arginyl-aminomethylcoumarin (Arg-AMC). LTA4H Enzyme (1 nM final), Arg-AMC substrate (50 μM final), and compound are combined in a reaction buffer (50 mM Tris-HCl (pH 7.5), 100 mM KCl, 0.5% bovine serum albumin) at room temperature for 1 h. The formation of product is assessed by measuring the fluorescence of aminomethylcoumarin product (excitation wavelength 380 nm/emission wavelength 460 nm). In general, the preferred potency range (IC50) of compounds in the LTA4H Enzyme assay is between 0.1 nM to 10 μM, the more preferred potency range is 0.1 nM to 0.1 μM, and the most preferred potency range is 0.1 nM to 10 nM.

[1] = test system: LTB4 synthesis in human whole blood; assay: human whole blood (HWB) assay, inhibition of LTB4 production; assay type: cell-based; details: heparinized human whole blood, calcimycin 20 μM stimulation, plasma LTB4
Experimental: The compounds of the invention are additionally tested in a human whole blood (HWB) assay to determine their ability to inhibit the synthesis of LTB4 in a cellular system. Compounds are combined with heparinized human whole blood and incubated for 15 minutes at 37° C. Calcimycin (20 μM final, prepared in phosphate-buffered saline, pH 7.4) is then added and the mixture is incubated for another 30 minutes at 37° C. The samples are centrifuged for 5 min at low speed (1500×g) and the plasma layer is removed. Plasma LTB4 concentrations are then measured using an antibody-based homogenous time-resolved fluorescence method (CisBio, Bedford, Mass.). In general, the preferred potency range (IC50) of compounds in the HWB assay is between 10 nM to 10 μM, the more preferred potency range is 10 nM to 1 μM, and the most preferred potency range is 10 nM to 100 nM.

Structure (SMILES) | IC50 (human LTA4 hydrolase) [nM] | IC50 [1] [nM]
O=C1CCC2CN(Cc3ccc4cc(Oc5ccc(-c6ccn[nH]6)cn5)ccc4n3)CCN12 (centres unmarked) [Example 18, 2-{6-[5-(2H-pyrazol-3-yl)-pyridin-2-yloxy]-quinolin-2-ylmethyl}-hexahydro-pyrrolo[1,2-a]pyrazin-6-one] | 2 | 580
CC(=O)N[C@@H]1C[C@H]2CC[C@@H](C1)N2Cc1ccc2cc(Oc3ccc(-c4ccn[nH]4)cc3)ccc2n1 [Example 248, N-((exo)-8-{6-[4-(2H-Pyrazol-3-yl)-phenoxy]-quinolin-2-ylmethyl}-8-aza-bicyclo[3.2.1]oct-3-yl)-acetamide] | 0.083 | 200
COCC(=O)NC1CCN(CC2Cc3ccc(Oc4ccc(-c5ccn[nH]5)cc4)cc3O2)CC1 (centres unmarked) [Example 170, 2-Methoxy-N-(1-{6-[4-(2H-pyrazol-3-yl)-phenoxy]-2,3-dihydro-benzofuran-2-ylmethyl}-piperidin-4-yl)-acetamide] | 0.35 | 120
CCN(C)CCn1cc2cc(Oc3ccc(-c4ccn[nH]4)cc3)ccc2n1 [Example 154, Ethyl-methyl-(2-{5-[4-(2H-pyrazol-3-yl)-phenoxy]-indazol-2-yl}-ethyl)-amine] | 0.19 | 95
O=C(CO)N1CCN(Cc2ccc3cc(Oc4ccc(-c5ccn[nH]5)cn4)ccc3n2)CC1 [Example 27, 2-Hydroxy-1-(4-{6-[5-(2H-pyrazol-3-yl)-pyridin-2-yloxy]-quinolin-2-ylmethyl}-piperazin-1-yl)-ethanone] | 0.72 | 150
CC(=O)N1C[C@@H]2C[C@H]1CN2Cc1ccc2cc(Oc3ccc(-c4cc[nH]n4)cn3)ccc2n1 [Example 240, 1-((S)-5-{6-[5-(1H-Pyrazol-3-yl)-pyridin-2-yloxy]-quinolin-2-ylmethyl}-2,5-diaza-bicyclo[2.2.1]hept-2-yl)-ethanone] | 0.94 | 340
C[C@H]1CN(Cc2nc3ccc(Cc4ccc(-c5ccn[nH]5)cc4)cc3[nH]2)C[C@H](C)O1 [Example 56, 2-((2S,6S)-2,6-Dimethyl-morpholin-4-ylmethyl)-6-[4-(2H-pyrazol-3-yl)-benzyl]-1H-benzoimidazole] | 0.18 | 110
O=C1[C@@H](O)CCN1C1CCN(Cc2ccc3cc(Oc4ccc(-c5ccn[nH]5)cn4)ccc3c2)CC1 [Example 7, (S)-3-Hydroxy-1-(1-{6-[5-(2H-pyrazol-3-yl)-pyridin-2-yloxy]-naphthalen-2-ylmethyl}-piperidin-4-yl)-pyrrolidin-2-one] | 0.68 | 180
C[C@H]1CCCCN1Cc1nc2cc(Oc3ccc(-c4ccn[nH]4)cc3)ccc2[nH]1 [Example 171, 2-((S)-2-Methyl-piperidin-1-ylmethyl)-5-[4-(2H-pyrazol-3-yl)-phenoxy]-1H-benzoimidazole] | 0.11 | 130
c1cc(-c2ccc(Oc3ccc4nn(CCCN5CCCC5)cc4c3)cc2)[nH]n1 [Example 105, 5-[4-(2H-Pyrazol-3-yl)-phenoxy]-2-(3-pyrrolidin-1-yl-propyl)-2H-indazole] | 0.53 | 200
c1cc(-c2ccc(Oc3ccc4[nH]c(C[C@@H]5CCCN5)nc4c3)cc2)[nH]n1 [Example 207, 5-[4-(2H-Pyrazol-3-yl)-phenoxy]-2-(S)-1-pyrrolidin-2-ylmethyl-1H-benzoimidazole] | 0.17 | 220
c1cc(-c2ccc(Oc3ccc4ncc(CN5CCOCC5)cc4c3)cc2)[nH]n1 [Example 249, 3-Morpholin-4-ylmethyl-6-[4-(2H-pyrazol-3-yl)-phenoxy]-quinoline] | 0.37 | 200
FC(F)(F)C1CCN(Cc2nc3cc(Oc4ccc(-c5ccn[nH]5)cc4)ccc3[nH]2)C1 (centres unmarked) [Example 196, 5-[4-(2H-Pyrazol-3-yl)-phenoxy]-2-(3-trifluoromethyl-pyrrolidin-1-ylmethyl}-1H-benzoimidazole] | 0.17 | 180
